Results from BindingDB's records for PubMed 20126400 (University of Oklahoma, 2010).

Experiments:
Experiment in all cases: Ray2010 Assay 74
[1] = target: D(1B) dopamine receptor (Homo sapiens, UniProt P21918)
Source text: (§1) Table S2 shows raw Ki data for the current study combined with data collected from the literature for the ten additional compounds.

[2] = target: Cannabinoid receptor 2 (Homo sapiens, UniProt P34972)
Source text: as §1

[3] = target: Cannabinoid receptor 1 (Homo sapiens, UniProt P21554)
Sequence of Cannabinoid receptor 1 (P21554 whole entry): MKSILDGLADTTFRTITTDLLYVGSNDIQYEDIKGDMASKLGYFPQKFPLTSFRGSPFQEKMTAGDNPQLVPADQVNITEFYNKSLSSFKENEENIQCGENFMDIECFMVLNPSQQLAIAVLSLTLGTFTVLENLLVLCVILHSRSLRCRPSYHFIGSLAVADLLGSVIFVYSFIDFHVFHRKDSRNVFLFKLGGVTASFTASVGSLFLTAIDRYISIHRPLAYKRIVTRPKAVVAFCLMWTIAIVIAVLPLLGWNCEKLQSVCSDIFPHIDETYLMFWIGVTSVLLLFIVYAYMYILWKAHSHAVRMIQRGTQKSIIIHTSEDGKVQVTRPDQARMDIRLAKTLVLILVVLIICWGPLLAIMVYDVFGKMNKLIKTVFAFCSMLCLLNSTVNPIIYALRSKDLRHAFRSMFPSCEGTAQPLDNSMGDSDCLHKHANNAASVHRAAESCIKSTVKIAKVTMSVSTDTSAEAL
Source text: as §1

[4] = target: T1, Gamma-aminobutyric acid receptor subunit alpha-1/Adenosine receptor A1 (Homo sapiens, UniProt P14867+P30542)
T1 sequence (P30542 whole entry): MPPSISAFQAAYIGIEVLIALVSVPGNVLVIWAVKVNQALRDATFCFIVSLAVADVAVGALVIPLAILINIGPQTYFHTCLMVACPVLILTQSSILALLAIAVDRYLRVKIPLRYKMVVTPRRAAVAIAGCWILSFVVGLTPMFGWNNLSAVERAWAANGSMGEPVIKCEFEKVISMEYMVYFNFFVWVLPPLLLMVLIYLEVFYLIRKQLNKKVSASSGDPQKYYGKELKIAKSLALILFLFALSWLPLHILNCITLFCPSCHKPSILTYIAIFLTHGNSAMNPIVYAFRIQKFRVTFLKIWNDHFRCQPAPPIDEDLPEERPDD
T1 sequence (P14867 whole entry): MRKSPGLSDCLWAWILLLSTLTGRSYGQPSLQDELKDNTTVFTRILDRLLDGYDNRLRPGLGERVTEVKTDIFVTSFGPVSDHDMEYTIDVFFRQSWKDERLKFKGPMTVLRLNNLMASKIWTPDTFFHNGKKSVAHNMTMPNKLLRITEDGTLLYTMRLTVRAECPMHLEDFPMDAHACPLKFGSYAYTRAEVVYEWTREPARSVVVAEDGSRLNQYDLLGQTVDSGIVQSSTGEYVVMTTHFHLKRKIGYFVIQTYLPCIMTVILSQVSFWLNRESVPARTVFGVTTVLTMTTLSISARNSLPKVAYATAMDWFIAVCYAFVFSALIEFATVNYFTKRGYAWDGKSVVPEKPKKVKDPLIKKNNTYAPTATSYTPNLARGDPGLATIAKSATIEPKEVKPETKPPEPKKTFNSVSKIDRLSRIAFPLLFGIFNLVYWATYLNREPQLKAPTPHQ
Source text: as §1

[5] = target: 5-hydroxytryptamine receptor 5A (Homo sapiens, UniProt P47898)
Sequence of 5-hydroxytryptamine receptor 5A (P47898 whole entry): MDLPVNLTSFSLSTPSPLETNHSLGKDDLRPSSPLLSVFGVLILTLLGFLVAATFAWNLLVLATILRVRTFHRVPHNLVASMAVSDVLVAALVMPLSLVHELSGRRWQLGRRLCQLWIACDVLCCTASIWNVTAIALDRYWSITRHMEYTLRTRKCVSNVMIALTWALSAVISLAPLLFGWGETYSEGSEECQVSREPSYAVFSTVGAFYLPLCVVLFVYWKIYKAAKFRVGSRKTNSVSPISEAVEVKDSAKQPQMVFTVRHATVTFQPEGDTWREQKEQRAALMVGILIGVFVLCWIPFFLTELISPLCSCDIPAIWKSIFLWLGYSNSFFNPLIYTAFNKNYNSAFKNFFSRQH
Source text: as §1

[6] = target: Kappa-type opioid receptor (Homo sapiens, UniProt P41145)
Sequence of Kappa-type opioid receptor (P41145 whole entry): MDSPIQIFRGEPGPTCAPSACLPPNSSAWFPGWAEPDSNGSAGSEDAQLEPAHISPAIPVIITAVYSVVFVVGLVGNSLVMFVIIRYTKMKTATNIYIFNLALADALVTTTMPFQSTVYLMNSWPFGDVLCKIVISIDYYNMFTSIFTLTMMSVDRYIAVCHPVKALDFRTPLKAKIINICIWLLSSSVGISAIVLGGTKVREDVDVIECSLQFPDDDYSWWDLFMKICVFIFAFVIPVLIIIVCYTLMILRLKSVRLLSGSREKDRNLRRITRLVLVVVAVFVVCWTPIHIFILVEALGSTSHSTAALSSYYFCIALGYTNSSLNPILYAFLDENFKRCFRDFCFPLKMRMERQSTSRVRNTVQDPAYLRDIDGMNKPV
Source text: as §1

[7] = target: T2, Muscarinic acetylcholine receptor M4 (Homo sapiens, UniProt P08173)
T2 sequence (P08173 whole entry): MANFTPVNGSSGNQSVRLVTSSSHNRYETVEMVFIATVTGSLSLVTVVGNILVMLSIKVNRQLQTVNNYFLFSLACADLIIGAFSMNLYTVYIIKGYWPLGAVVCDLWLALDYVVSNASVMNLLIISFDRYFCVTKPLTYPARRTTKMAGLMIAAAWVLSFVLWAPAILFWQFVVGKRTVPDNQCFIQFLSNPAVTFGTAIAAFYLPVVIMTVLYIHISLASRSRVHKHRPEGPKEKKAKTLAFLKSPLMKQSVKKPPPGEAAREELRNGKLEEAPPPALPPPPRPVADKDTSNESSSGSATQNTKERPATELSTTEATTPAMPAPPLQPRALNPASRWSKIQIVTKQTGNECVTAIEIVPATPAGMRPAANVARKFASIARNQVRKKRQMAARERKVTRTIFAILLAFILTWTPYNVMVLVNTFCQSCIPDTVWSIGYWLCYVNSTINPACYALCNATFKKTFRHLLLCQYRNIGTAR
Source text: as §1

[8] = target: Voltage-dependent calcium channel subunit alpha-2/delta-1 (Homo sapiens, UniProt P54289)
Source text: as §1

[9] = target: T3, 5-hydroxytryptamine receptor 3A (Homo sapiens, UniProt P46098)
T3 sequence (P46098 whole entry): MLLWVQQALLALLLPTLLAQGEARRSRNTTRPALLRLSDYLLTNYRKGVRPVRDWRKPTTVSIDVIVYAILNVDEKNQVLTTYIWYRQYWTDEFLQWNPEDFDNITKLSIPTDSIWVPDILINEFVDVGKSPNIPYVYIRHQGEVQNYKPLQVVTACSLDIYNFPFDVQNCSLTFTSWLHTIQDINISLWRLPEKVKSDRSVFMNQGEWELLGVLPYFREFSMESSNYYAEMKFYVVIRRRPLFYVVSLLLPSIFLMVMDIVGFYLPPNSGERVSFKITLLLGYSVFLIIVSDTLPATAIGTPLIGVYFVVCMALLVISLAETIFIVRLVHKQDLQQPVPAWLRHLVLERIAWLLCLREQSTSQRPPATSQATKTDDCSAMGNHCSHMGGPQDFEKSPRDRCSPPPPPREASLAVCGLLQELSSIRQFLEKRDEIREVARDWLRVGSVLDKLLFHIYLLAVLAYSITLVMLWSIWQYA
Source text: as §1

[10] = target: Nischarin (Homo sapiens, UniProt Q9Y2I1)
Sequence of Nischarin (Q9Y2I1 whole entry): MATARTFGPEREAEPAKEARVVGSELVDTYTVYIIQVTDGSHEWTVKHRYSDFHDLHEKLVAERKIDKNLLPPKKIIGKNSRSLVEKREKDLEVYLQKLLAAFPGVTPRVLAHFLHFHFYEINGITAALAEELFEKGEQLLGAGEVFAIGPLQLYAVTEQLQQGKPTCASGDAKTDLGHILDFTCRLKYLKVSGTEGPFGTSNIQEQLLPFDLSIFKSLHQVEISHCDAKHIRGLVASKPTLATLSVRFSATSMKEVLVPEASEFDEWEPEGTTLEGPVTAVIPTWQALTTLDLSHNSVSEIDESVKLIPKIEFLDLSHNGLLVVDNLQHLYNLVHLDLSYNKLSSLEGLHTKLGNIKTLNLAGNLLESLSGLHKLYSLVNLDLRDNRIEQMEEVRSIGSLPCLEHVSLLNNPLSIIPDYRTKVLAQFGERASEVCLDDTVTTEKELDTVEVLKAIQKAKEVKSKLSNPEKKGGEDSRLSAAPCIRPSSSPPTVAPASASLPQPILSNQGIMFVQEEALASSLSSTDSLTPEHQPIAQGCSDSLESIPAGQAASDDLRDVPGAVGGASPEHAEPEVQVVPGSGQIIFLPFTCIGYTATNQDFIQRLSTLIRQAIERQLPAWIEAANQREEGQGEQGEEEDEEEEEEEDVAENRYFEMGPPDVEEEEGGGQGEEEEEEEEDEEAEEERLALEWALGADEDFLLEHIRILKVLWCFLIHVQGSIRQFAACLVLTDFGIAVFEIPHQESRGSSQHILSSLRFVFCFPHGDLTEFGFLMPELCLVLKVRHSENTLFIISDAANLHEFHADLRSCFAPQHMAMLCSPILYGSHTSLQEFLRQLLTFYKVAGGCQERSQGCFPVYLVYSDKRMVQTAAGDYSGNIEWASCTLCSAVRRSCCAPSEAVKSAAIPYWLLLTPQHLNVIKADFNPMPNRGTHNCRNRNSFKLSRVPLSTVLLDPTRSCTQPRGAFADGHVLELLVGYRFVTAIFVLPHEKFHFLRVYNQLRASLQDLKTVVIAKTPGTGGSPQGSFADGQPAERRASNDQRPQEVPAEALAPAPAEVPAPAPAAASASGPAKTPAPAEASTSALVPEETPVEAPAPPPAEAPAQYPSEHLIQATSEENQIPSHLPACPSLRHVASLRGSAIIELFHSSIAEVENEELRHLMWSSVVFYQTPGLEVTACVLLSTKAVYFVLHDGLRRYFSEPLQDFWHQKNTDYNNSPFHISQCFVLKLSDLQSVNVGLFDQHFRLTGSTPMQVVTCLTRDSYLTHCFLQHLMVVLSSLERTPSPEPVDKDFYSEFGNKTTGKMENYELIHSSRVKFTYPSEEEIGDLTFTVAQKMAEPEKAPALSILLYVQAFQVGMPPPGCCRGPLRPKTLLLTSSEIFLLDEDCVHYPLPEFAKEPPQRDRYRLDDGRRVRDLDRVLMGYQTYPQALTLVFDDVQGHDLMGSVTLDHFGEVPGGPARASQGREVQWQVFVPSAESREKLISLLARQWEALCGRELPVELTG
Source text: as §1

[11] = target: T4, Muscarinic acetylcholine receptor M5 (Homo sapiens, UniProt P08912)
T4 sequence (P08912 whole entry): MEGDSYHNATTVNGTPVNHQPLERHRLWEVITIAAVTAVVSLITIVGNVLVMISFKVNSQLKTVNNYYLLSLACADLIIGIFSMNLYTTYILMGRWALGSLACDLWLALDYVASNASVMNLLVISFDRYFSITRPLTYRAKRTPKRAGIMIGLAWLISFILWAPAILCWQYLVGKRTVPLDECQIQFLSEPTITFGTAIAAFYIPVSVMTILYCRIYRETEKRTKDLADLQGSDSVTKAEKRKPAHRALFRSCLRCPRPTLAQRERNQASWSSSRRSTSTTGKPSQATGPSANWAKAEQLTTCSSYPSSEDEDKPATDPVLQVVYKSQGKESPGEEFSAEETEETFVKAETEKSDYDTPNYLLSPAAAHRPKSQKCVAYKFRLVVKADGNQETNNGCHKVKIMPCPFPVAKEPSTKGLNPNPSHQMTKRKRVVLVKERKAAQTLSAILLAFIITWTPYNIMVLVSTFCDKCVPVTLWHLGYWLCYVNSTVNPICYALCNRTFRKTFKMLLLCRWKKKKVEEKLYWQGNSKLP
Source text: as §1

[12] = target: 5-hydroxytryptamine receptor 1E (Homo sapiens, UniProt P28566)
Source text: as §1

[13] = target: D(1A) dopamine receptor (Homo sapiens, UniProt P21728)
Sequence of D(1A) dopamine receptor (P21728 whole entry): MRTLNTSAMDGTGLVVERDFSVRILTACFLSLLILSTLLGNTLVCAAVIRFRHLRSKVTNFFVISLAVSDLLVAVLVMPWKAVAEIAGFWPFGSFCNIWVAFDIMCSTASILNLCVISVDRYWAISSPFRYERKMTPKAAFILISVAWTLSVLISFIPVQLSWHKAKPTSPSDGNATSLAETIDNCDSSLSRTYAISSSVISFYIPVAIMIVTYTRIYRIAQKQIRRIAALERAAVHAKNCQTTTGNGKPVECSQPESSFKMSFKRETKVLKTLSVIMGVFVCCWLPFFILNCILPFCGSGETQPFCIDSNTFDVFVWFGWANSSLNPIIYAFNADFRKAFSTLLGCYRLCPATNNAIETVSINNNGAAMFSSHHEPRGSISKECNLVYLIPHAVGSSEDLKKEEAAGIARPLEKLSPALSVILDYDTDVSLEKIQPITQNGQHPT
Source text: as §1

[14] = target: 5-hydroxytryptamine receptor 1B (Homo sapiens, UniProt P28222)
Source text: as §1

[15] = target: 5-hydroxytryptamine receptor 2B (Homo sapiens, UniProt P41595)
Source text: as §1

[16] = target: 5-hydroxytryptamine receptor 2A (Homo sapiens, UniProt P28223)
Sequence of 5-hydroxytryptamine receptor 2A (P28223 whole entry): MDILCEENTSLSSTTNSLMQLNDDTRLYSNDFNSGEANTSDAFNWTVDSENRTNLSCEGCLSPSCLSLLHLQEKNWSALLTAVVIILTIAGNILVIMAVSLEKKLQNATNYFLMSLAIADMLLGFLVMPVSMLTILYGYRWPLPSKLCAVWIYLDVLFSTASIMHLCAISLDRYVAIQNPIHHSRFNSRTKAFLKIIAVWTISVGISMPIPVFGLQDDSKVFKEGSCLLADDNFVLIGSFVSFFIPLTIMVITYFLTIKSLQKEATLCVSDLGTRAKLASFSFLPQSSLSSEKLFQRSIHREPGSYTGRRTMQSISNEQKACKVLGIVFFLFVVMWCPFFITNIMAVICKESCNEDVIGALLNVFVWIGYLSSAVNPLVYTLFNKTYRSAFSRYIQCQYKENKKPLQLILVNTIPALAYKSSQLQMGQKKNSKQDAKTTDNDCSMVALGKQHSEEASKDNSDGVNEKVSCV
Source text: as §1

[17] = target: T5, Alpha-1A adrenergic receptor (Homo sapiens, UniProt P35348)
T5 sequence (P35348 whole entry): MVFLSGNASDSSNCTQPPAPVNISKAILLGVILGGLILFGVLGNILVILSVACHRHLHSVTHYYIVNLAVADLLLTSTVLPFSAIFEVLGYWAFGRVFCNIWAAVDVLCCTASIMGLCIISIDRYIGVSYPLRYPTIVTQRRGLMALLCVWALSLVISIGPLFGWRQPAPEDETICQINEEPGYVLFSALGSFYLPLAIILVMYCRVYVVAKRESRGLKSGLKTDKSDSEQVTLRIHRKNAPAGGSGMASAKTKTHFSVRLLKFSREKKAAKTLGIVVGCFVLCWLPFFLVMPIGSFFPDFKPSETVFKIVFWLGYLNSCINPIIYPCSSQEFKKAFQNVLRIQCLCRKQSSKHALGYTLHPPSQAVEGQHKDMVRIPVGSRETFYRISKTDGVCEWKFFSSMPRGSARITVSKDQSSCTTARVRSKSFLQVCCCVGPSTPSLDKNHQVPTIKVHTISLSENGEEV
Source text: as §1

[18] = target: 5-hydroxytryptamine receptor 6 (Homo sapiens, UniProt P50406)
Source text: as §1

[19] = target: D(2) dopamine receptor (Homo sapiens, UniProt P14416)
Sequence of D(2) dopamine receptor (P14416 whole entry): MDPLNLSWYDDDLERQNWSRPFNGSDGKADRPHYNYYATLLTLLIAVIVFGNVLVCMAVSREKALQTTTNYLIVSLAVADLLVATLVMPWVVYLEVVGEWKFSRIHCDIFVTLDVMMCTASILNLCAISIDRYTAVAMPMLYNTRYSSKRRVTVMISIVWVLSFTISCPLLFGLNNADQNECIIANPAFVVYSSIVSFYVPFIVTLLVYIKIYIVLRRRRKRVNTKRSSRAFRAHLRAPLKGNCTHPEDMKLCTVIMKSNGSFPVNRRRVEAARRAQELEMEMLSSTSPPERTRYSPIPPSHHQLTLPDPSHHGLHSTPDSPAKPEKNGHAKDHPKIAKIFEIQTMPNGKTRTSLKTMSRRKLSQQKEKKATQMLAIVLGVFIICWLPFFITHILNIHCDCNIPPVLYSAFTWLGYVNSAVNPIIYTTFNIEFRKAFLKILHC
Source text: as §1

[20] = target: Histamine H1 receptor (Homo sapiens, UniProt P35367)
Source text: as §1

[21] = target: T6, 5-hydroxytryptamine receptor 1A (Homo sapiens, UniProt P08908)
T6 sequence (P08908 whole entry): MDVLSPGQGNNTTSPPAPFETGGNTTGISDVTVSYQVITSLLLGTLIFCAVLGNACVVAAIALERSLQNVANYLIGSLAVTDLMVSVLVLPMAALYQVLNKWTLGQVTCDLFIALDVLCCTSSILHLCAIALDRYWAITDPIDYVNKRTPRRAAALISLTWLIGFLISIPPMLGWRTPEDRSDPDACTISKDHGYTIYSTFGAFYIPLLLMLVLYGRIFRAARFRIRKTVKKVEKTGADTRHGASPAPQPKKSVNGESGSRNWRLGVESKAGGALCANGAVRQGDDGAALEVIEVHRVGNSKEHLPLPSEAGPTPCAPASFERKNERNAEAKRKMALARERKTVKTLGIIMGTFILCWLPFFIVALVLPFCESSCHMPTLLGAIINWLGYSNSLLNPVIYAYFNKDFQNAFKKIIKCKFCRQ
Source text: as §1

Sequence of Cannabinoid receptor 2 (P34972 whole entry): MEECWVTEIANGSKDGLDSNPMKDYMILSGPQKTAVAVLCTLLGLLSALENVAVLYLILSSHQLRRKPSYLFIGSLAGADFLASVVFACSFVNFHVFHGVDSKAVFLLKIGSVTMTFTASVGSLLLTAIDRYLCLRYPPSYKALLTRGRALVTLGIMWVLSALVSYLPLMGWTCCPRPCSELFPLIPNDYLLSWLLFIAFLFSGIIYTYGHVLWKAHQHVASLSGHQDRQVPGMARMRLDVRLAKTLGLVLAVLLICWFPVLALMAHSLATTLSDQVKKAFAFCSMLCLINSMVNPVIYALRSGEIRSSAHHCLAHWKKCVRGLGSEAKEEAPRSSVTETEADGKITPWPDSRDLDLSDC
Sequence of D(1B) dopamine receptor (P21918 whole entry): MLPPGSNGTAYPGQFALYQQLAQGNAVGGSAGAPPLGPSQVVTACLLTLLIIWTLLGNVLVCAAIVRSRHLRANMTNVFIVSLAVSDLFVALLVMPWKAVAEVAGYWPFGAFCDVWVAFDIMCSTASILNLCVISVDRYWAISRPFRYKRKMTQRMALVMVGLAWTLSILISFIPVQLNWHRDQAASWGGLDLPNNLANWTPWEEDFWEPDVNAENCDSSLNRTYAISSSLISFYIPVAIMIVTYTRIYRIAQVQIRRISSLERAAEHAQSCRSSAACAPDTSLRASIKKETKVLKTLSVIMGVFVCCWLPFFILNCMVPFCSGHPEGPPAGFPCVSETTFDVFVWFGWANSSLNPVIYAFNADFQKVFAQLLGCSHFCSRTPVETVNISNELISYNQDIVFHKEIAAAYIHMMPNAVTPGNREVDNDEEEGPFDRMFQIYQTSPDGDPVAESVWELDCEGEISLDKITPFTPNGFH

CCN(CC)C(=O)N[C@H]1C=C2c3cccc4[nH]cc(c34)C[C@H]2N(C)C1 [lisuride, (S)]
Ki [1]: 77 nM
Ki [2]: > 10000 nM
Ki [3]: > 10000 nM
Ki [4]: > 10000 nM
Ki [5]: 3.1 nM
Ki [6]: > 10000 nM
Ki [7]: > 10000 nM
Ki [8]: > 10000 nM
Ki [9]: > 10000 nM
Ki [10]: > 10000 nM
Ki [11]: > 10000 nM

C[C@@H]1C[C@@H](C)N1C(=O)C1C=C2c3cccc4[nH]cc(c34)C[C@H]2N(C)C1 (some centres not stated) [ss-2c]
Ki [12]: 276 nM
Ki [13]: 292 nM
Ki [14]: 2.4 nM
Ki [15]: 27 nM
Ki [16]: 19.2 nM
Ki [17]: 850 nM
Ki [18]: 14.5 nM
Ki [5]: 27.3 nM
Ki [19]: 73.6 nM
Ki [20]: 2500 nM
Ki [21]: 0.4 nM
